# According to PubChem BioAssay AID1919016 (Molecular Pharmacology Branch, DTP, NCI, 2023):
# Several values for one entry are separate records, joined by “and”; a condition that tells them apart may be missing. Equal entries are not always repeated.
# System: NCI-H196 complex spheroid growth, percent test/control
# Experiment: Anticancer human tumor NCI-H196 cell line growth inhibition [AhR];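 note: seven days of drug exposure starting three days after plating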;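 for viability, T/C: 100% = DMSO vehicle control wells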
# Details: for viability, T/C: stronger effect = lower value
# How it was run: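 Complex tumor spheroids co-cultured with HUVEC and human MSC stroma; AhR antagonists tested in combination with standard-of-care and investigational agents. Top concentration at or near clinical Cmax (else 10 microM), half-log dilutions; growth expressed as percent test/control.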
compound,measurement,setting,value
CC1(C)CCC(CN2CCN(c3ccc(C(=O)NS(=O)(=O)c4ccc(NCC5CCOCC5)c([N+](=O)[O-])c4)c(Oc4cnc5[nH]ccc5c4)c3)CC2)=C(c2ccc(Cl)cc2)C1 + Cc1cncc(-c2nc(NCCc3c[nH]c4ccccc34)c3ncn(C(C)C)c3n2)c1,IC50,"curve of first compound, second compound 0.1 µM",> 10 µM
same,IC50,"curve of first compound, second compound 0.316 µM",> 10 µM
same,IC50,"curve of first compound, second compound 1 µM",> 10 µM
same,IC50,"curve of first compound, second compound 3.16 µM",> 10 µM
same,IC50,"curve of first compound, second compound 10 µM",> 10 µM
same,"viability, T/C","second compound 0.1 µM, first compound 0.0316 µM",98.3%
same,"viability, T/C","second compound 0.1 µM, first compound 0.1 µM",97.8%
same,"viability, T/C","second compound 0.1 µM, first compound 0.316 µM",89.4%
same,"viability, T/C","second compound 0.1 µM, first compound 1 µM",98.6%
same,"viability, T/C","second compound 0.1 µM, first compound 3.16 µM",96.5%
same,"viability, T/C","second compound 0.1 µM, first compound 10 µM",107%
same,"viability, T/C","second compound 0.316 µM, first compound 0.0316 µM",106%
same,"viability, T/C","second compound 0.316 µM, first compound 0.1 µM",96%
same,"viability, T/C","second compound 0.316 µM, first compound 0.316 µM",95.7%
same,"viability, T/C","second compound 0.316 µM, first compound 1 µM",93.1%
same,"viability, T/C","second compound 0.316 µM, first compound 3.16 µM",105%
same,"viability, T/C","second compound 0.316 µM, first compound 10 µM",108%
same,"viability, T/C","second compound 1 µM, first compound 0.0316 µM",91.7%
same,"viability, T/C","second compound 1 µM, first compound 0.1 µM",101%
same,"viability, T/C","second compound 1 µM, first compound 0.316 µM",108%
same,"viability, T/C","second compound 1 µM, first compound 1 µM",97.1%
same,"viability, T/C","second compound 1 µM, first compound 3.16 µM",103%
same,"viability, T/C","second compound 1 µM, first compound 10 µM",105%
same,"viability, T/C","second compound 3.16 µM, first compound 0.0316 µM",115%
same,"viability, T/C","second compound 3.16 µM, first compound 0.1 µM",105%
same,"viability, T/C","second compound 3.16 µM, first compound 0.316 µM",105%
same,"viability, T/C","second compound 3.16 µM, first compound 1 µM",108%
same,"viability, T/C","second compound 3.16 µM, first compound 3.16 µM",95%
same,"viability, T/C","second compound 3.16 µM, first compound 10 µM",104%
same,"viability, T/C","second compound 10 µM, first compound 0.0316 µM",87.8%
same,"viability, T/C","second compound 10 µM, first compound 0.1 µM",97.9%
same,"viability, T/C","second compound 10 µM, first compound 0.316 µM",107%
same,"viability, T/C","second compound 10 µM, first compound 1 µM",118%
same,"viability, T/C","second compound 10 µM, first compound 3.16 µM",105%
same,"viability, T/C","second compound 10 µM, first compound 10 µM",101%
Nc1ncn(C2CC(O)C(CO)O2)c(=O)n1 (configuration not stated),"viability, T/C",compound 0.00316 µM,110% and 113% and 104%
same,"viability, T/C",compound 0.01 µM,96.1% and 116% and 107%
same,"viability, T/C",compound 0.0316 µM,93.2% and 102% and 110%
same,"viability, T/C",compound 0.1 µM,97.1% and 113% and 103%
same,"viability, T/C",compound 0.316 µM,105% and 124% and 93.8%
same,"viability, T/C",compound 1 µM,116% and 104% and 105%
same,IC50,curve of compound,> 1 µM
